From US11590129B2, “Combination therapy with an antitumor alkaloid” (PHARMA MAR, S.A., priority 2010, dated 2023)
pEC50, pIC50: −log10 of the molar value. Read-outs that look alike come from different tables or passages of the source.

What was measured:
[1] = tested on: SK-MEL-2 human melanoma cell line; experiment: cells
Protocol: (§1) a. […] Briefly, cells were harvested and seeded in 96 well microtiter plates at a density of 5,000 cells in 150 μL of culture medium and incubated for 24 hours in drug-free medium before treatment with vehicle alone or test compounds for 72 h.
(§2) The cytotoxic effect was measured by the MTT reduction assay, in which 3-(4,5-Dimethylthiazol-2-yl)-2,5-diphenyltetrazolium bromide, a tetrazole, which is reduced to purple formazan in the mitochondria of living cells, was used. MTT (50 μL of 1 mg/mL stock solution) was added to the wells and incubated for 8 hours at 37° C. until formazan crystals were formed. After gently removing the culture medium, DMSO was added to dissolve the insoluble purple formazan product into a colored solution. […] Results were expressed as percentage of control cell growth.
(§3) b. In a second set of assays, A549 human tumor cells were incubated with PM01183 in combination with each of the agents mentioned above.
(§4) As a visual aid, response values were plotted on a scatter plot with dose ratios given on the x-axis and % response values on the y-axis. […] In cases where response values at the two endpoints were approximately equivalent, points lying above or below this predicted line of additivity could be interpreted as representing antagonistic or synergistic drug interaction, respectively.
(§5) Additional serial dilutions were prepared in serum-free culture medium to achieve a final 4× concentration. Aliquots of 50 μL of each diluted compound were added per well.
SK-MEL-2 was the human melanoma cell line selected for this assay.

[2] = tested on: PC-3 human prostate cancer cell line; experiment: cells
Protocol: as §1, §2, §3, §4, §5
PC-3 was the human prostate adenocarcinome cell line selected for this assay.

[3] = tested on: PANC-1 human pancreatic carcinoma cell line; experiment: cells
Protocol: as §1, §2, §3, §4, §5
PANC-1 was the human pancreatic carcinoma cell line selected for this assay.

[4] = tested on: HGC-27 human gastric carcinoma cell line; experiment: cells
Protocol: as §1, §2, §3, §4, §5
HGC-27 was the human gastric carcinoma cell line selected for this assay.

[5] = tested on: IGROV-1 human ovarian adenocarcinoma cell line; experiment: cells
Protocol: as §1, §2, §3, §4, §5
IGROV-1 was the human ovarian adenocarcinoma cell line selected for this assay.

[6] = tested on: HepG2 human hepatocellular liver carcinoma cell line; experiment: MTT cytotoxicity assay in HepG2 cells: IC50 of single agents and combinations with PM01183; assay type: cell-based
Protocol: as §1, §2, §3, §4, §5
HepG2 was the human hepatocellular liver carcinoma cell line selected for this assay.

[7] = tested on: MDA-MB-231 human breast adenocarcinoma cell line; experiment: cells
Protocol: as §1, §2, §3, §4, §5

[8] = tested on: RXF-393 human kidney carcinoma cell line; experiment: cells
Protocol: as §1, §2, §3, §4, §5

[9] = tested on: HT-29 human colon adenocarcinoma cell line; experiment: cells
Protocol: as §1, §2, §3, §4, §5
HT-29 was the human colon adenocarcinoma cell line selected for this assay.

[10] = tested on: U87-MG human glioblastoma cell line; experiment: cells
Protocol: as §1, §2, §3, §4, §5
U87-MG was the human glioblastoma cell line selected for this assay.

HGC-27 tumors = experiment: Human gastric tumor xenografts (HGC-27) in athymic nude mice, tumor volume % T/C; assay type: in vivo
Protocol: (§6) Female athymic nude mice (Harlan Laboratories Models, S.L. (Barcelona, Spain) were utilized for all experiments. Animals were housed in individually ventilated cages, up to ten per cage in a 12-hour light-dark cycle at 21-23° C. and 40-60% humidity. The mice were allowed free access to irradiated standard rodent diet and sterilized water. Animals were acclimated for at least 5 days prior to tumor implantation with a tumor cell suspension.
HGC-27 cells were grown at 37° C. with 5% CO2 in Iscove's modified Dulbeco's medium (IDMD).
(§7) PM01183 was provided in the form of vials of lyophilized PM01183 cake which was reconstituted with water for infusion to a concentration of 0.2 mg/mL. The PM01183 stock solution was further diluted in 5% glucose solution for injection to the dosing formulation concentrations. Cisplatin and 5-fluorouracil were provided as solutions prepared by diluting the product with 0.9% saline solution for injection to the target final concentration.
(§8) Dose level groups were administered either as single agents or in combination.
(§9) Comparison of the median tumor volume in the treatment groups (T) to the median tumor volume in the control group (T/C×100%) was used for evaluation of the antitumor efficacy.

[11] = tested on: A673 human rhabdomyosarcoma cell line; experiment: cells; conditions: Homo sapiens, A673, 72 h
Protocol: as §1, §2, §3, §4, §5
A673 was the human rhabdomyosarcoma cell line selected for this assay.

[12] = tested on: RAMOS human lymphoma cell line; experiment: cells; conditions: Homo sapiens, Ramos, 72 h
Protocol: Briefly, cells were seeded in 96 well microtiter plates at a density of 50000 cells per well in 150 μL of culture medium and incubated for 4-6 hours in drug-free medium before treatment with vehicle alone or test compounds for 72 hours.
After incubation, the cytotoxic effect was evaluated using a MTT reduction assay. 50 μL of MTT solution (1 mg/mL) were added to the wells and incubated for 15-17 hours at 37° C. until formazan crystals were formed. After gently removing the culture medium, DMSO was added to dissolve the insoluble purple formazan product into a colored solution. […] Results were expressed as percentage of control cell growth. The EC50 values (half-maximal effective concentration) used for the combination studies were calculated using Prism v5.02 software (GraphPad). EC50 was expressed as molar concentration and represented the mean of at least three independent assays.
Using these starting concentrations, constant serial dilutions were performed to generate the concentration-response curves for each set of drugs, alone and in combination.
Based on this equation, the term “combination index” (CI) is used as a quantitative measure of the degree of drug interactions. […] CI values were calculated by solving the equation for different values of fa (i.e., for different degrees of cell groth inhibition).
Data were analyzed using CalcuSyn software (Biosoft, Cambridge, UK). For statistical analysis and graphs Prism software (GraphPad, San Diego, USA) was used. All the results represent the mean of at least three independent experiments.
as §5
In the second set of assays, concentration-response curves for the agents tested, both alone and in two-drug combination, were performed.

A2780 tumors = experiment: Human ovarian tumor xenografts (A2780) in athymic nude mice, tumor volume % T/C; assay type: in vivo
Protocol: as §6
The formula to calculate volume for a prolate ellipsoid was used to estimate tumor volume (mm^3) from 2-dimensional tumor measurements: Tumor volume (mm^3)=[L×W^2]÷2, where L is the length and it is the longest diameter in mm, and W is the width and it is the shortest diameter in mm of a tumor. Assuming unit density, volume was converted to weight (i.e., 1 mm^3=1 mg). Tumor volume and animal body weights were measured 2-3 times per week starting form the first day of treatment (Day 0).
as §7, with “[…] Vinorelbine was” for “Cisplatin and 5-fluorouracil were”, “a solution” for “solutions”, “solution.” for “solution for injection to the target final concentration.”
as §8, §9
Day 9 for PM01183 and vinorelbine study) using the median-effect principle (Chou T. C. Pharmacol. Rev.

[13] = cisplatin 1.5 mg/kg iv days 0,7
[14] = cisplatin 3.0 mg/kg iv days 0,7
[15] = cisplatin 4.5 mg/kg iv days 0,7
[16] = cisplatin 6.0 mg/kg iv days 0,7
[17] = doxorubicin 2.0 mg/kg iv days 0,7
[18] = doxorubicin 4.0 mg/kg iv days 0,7
[19] = doxorubicin 6.0 mg/kg iv days 0,7
[20] = doxorubicin 8.0 mg/kg iv days 0,7

N.N.[Cl][Pt][Cl] [Cisplatin, cisplatin]
pIC50 ([1]; SK-MEL-2, 72 hours drug exposure, MTT): 3.80
pIC50 ([2]; PC-3, 72 hours drug exposure, MTT): 3.96
pIC50 ([3]; PANC-1, 72 hours drug exposure, MTT): 3.83
pIC50 ([4]; HGC-27, 72 hours drug exposure, MTT): 4.10
pIC50 ([5]; IGROV-1, 72 hours drug exposure, MTT): 4.15
pIC50 ([6]; HepG2, 72 hours drug exposure, MTT, read-out: IC50): 4.30
pIC50 ([7]; MDA-MB-231, 72 hours drug exposure, MTT): 3.82
pIC50 ([8]; RXF-393, 72 hours drug exposure, MTT): 4.18
pIC50 ([9]; HT-29, 72 hours drug exposure, MTT): 3.66
pIC50 ([10]; U87-MG, 72 hours drug exposure, MTT): 4.36
% T/C on day 0 (HGC-27 tumors; [13]): 99.3%
% T/C on day 3 (HGC-27 tumors; [13]): 78.1%
% T/C on day 5 (HGC-27 tumors; [13]): 78.8%
% T/C on day 7 (HGC-27 tumors; [13]): 82.6%
% T/C on day 10 (HGC-27 tumors; [13]): 83.5%
% T/C on day 12 (HGC-27 tumors; [13]): 86.6%
% T/C on day 14 (HGC-27 tumors; [13]): 89.9%
% T/C on day 0 (HGC-27 tumors; [14]): 99.0%
% T/C on day 3 (HGC-27 tumors; [14]): 78.6%
% T/C on day 5 (HGC-27 tumors; [14]): 80.0%
% T/C on day 7 (HGC-27 tumors; [14]): 78.7%
% T/C on day 10 (HGC-27 tumors; [14]): 81.3%
% T/C on day 12 (HGC-27 tumors; [14]): 82.8%
% T/C on day 14 (HGC-27 tumors; [14]): 85.1%
% T/C on day 0 (HGC-27 tumors; [15]): 98.5%
% T/C on day 3 (HGC-27 tumors; [15]): 90.5%
% T/C on day 5 (HGC-27 tumors; [15]): 94.5%
% T/C on day 7 (HGC-27 tumors; [15]): 90.2%
% T/C on day 10 (HGC-27 tumors; [15]): 75.7%
% T/C on day 12 (HGC-27 tumors; [15]): 73.7%
% T/C on day 14 (HGC-27 tumors; [15]): 81.1%
% T/C on day 0 (HGC-27 tumors; [16]): 97.7%
% T/C on day 3 (HGC-27 tumors; [16]): 76.1%
% T/C on day 5 (HGC-27 tumors; [16]): 79.0%
% T/C on day 7 (HGC-27 tumors; [16]): 75.1%
% T/C on day 10 (HGC-27 tumors; [16]): 64.4%
% T/C on day 12 (HGC-27 tumors; [16]): 61.3%
% T/C on day 14 (HGC-27 tumors; [16]): 72.7%

Nc1ccn([C@@H]2O[C@H](CO)[C@@H](O)[C@@H]2O)c(=O)n1 [Cytarabine, cytarabine]
pIC50 [11]: 6.71
pIC50 ([1]; Homo sapiens, SK-MEL-2, 72 h): 5.41
pIC50 ([2]; Homo sapiens, PC-3, 72 h): 4.40
pIC50 ([3]; Homo sapiens, PANC-1, 72 h): 4.05
pIC50 ([4]; Homo sapiens, HGC-27, 72 h): 4.30
pIC50 ([5]; Homo sapiens, IGROV-1, 72 h): 4.93
pIC50 ([6]; Homo sapiens, HepG2, 72 h): 4.69
pIC50 ([7]; Homo sapiens, MDA-MB-231, 72 h): 5.02
pIC50 ([8]; Homo sapiens, RXF 393, 72 h): 4.30
pIC50 ([9]; Homo sapiens, HT-29, 72 h): 5.11
pEC50 [12]: 7.44

COc1cccc2c1C(=O)c1c(O)c3c(c(O)c1C2=O)C[C@@](O)(C(=O)CO)C[C@@H]3O[C@H]1C[C@H](N)[C@H](O)[C@H](C)O1 [Doxorubicin, doxorubicin]
pIC50 ([1]; Homo sapiens, SK-MEL-2, 72 h): 6.52
pIC50 ([2]; Homo sapiens, PC-3, 72 h): 5.83
pIC50 ([3]; Homo sapiens, PANC-1, 72 h): 5.46
pIC50 ([4]; Homo sapiens, HGC-27, 72 h): 7.27
pIC50 ([5]; Homo sapiens, IGROV-1, 72 h): 6.59
pIC50 ([6]; Homo sapiens, HepG2, 72 h): 6.70
pIC50 ([7]; Homo sapiens, MDA-MB-231, 72 h): 6.22
pIC50 ([8]; Homo sapiens, RXF 393, 72 h): 6.10
pIC50 ([9]; Homo sapiens, HT-29, 72 h): 6.05
pIC50 ([10]; Homo sapiens, U-87 MG, 72 h): 6.52
% T/C on day 0 (A2780 tumors; [17]): 99.8%
% T/C on day 3 (A2780 tumors; [17]): 91.5%
% T/C on day 5 (A2780 tumors; [17]): 93.1%
% T/C on day 7 (A2780 tumors; [17]): 94.2%
% T/C on day 10 (A2780 tumors; [17]): 86.2%
% T/C on day 0 (A2780 tumors; [18]): 102.0%
% T/C on day 3 (A2780 tumors; [18]): 82.9%
% T/C on day 5 (A2780 tumors; [18]): 75.1%
% T/C on day 7 (A2780 tumors; [18]): 75.0%
% T/C on day 0 (A2780 tumors; [19]): 99.4%
% T/C on day 3 (A2780 tumors; [19]): 71.0%
% T/C on day 5 (A2780 tumors; [19]): 60.3%
% T/C on day 7 (A2780 tumors; [19]): 56.8%
% T/C on day 10 (A2780 tumors; [19]): 54.3%
% T/C on day 0 (A2780 tumors; [20]): 99.5%
% T/C on day 3 (A2780 tumors; [20]): 60.8%
% T/C on day 5 (A2780 tumors; [20]): 49.8%
% T/C on day 7 (A2780 tumors; [20]): 48.1%
% T/C on day 10 (A2780 tumors; [20]): 39.4%
